From patent US8288139B2, “Sulfotransferase inhibitors” (Seikagaku Corporation, priority 2002, dated 2012)

Target: T1, human-derived GalNAc4S6ST (Homo sapiens, UniProt Q7LFX5)
T1 construct: made in house
T1 sequence (Q7LFX5 1-561): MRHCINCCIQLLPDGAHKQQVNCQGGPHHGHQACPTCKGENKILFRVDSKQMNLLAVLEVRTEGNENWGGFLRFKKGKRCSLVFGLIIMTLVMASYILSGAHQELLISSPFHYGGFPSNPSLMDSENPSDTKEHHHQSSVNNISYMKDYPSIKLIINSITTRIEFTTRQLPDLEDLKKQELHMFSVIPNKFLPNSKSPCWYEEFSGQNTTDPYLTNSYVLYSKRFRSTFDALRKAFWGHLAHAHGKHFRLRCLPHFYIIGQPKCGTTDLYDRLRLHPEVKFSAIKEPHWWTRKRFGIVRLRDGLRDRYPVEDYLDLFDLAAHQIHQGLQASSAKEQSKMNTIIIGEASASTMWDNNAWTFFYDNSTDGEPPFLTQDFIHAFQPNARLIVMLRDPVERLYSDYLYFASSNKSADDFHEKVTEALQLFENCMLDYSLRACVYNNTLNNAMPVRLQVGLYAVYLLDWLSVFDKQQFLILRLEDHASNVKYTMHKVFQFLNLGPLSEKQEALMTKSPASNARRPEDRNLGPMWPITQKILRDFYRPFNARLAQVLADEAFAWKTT
Assay: Inhibition of GalNAc4S6ST enzyme activity ([35S]PAPS sulfate transfer to chondroitin sulfate A)
Assay type: biochemical
Settings: for strength of inhibitory activity upon GalNAc4S6ST, α type and β type of the same formula compared: Substance 1 vs 2, 3 vs 4, 5 vs 6, 50, 125 or 250 nmol in 50 μl reaction; for inhibitory activity upon GalNAc4S6ST (relative value of the enzyme reaction, system without substance = 100%): substance added at 50 nmol, 125 nmol or 250 nmol to 50 μl reaction, 37° C., 20 minutes, values only in FIG. 1-3
Procedure: The enzyme activity was measured by modifying the method described in J. Biol. Chem., 276, 43894-43900 (2001). As the standard reaction solution, 2.5 μmol of imidazole-HCl (pH 6.8), 0.5 μmol of CaCl2, 1 μmol of reduced type glutathione, 25 nmol in galactosamine equivalent of chondroitin sulfate A (derived from whale cartilage, manufactured by Seikagaku Corporation), 50 pmol of [^35S]PAPS (active sulfate: about 5.0×10^5 cpm: prepared according to Anal Biochem., 148, 303-310 (1985)), and human-derived GalNAc4S6ST prepared according to the method described in J. Biol. Chem., 276, 43894-43900 (2001) were added to 50 μl. The reaction was started by adding each of Substance 1 of the present invention, Substance 2 of the present invention, Substance 3 of the present invention, Substance 4 of the present invention, Substance 5 of the present invention and Substance 6 of the present invention to this reaction system to give a final concentration of 50 nmol, 125 nmol or 250 nmol.
The reaction was carried out by incubating the reaction solution at 37° C. for 20 minutes, and the reaction was terminated by heating the reaction tubes in boiling water for 1 minute. After termination of the reaction, 3 volumes of ethanol containing 1.3% potassium acetate was added thereto to thereby precipitate the ^35S-labeled glycosaminoglycan, followed by gel chromatography using a high performance desalting column according to the method described in J. Biol. Chem., 268, 21968-21974 (1993), and then the radioactivity was measured by using a scintillation counter. A reaction system to which the enzyme was not added was used as the negative control.
By using the enzyme activity of a system to which the substance of the present invention was not added as the positive control and regarding it as 100%, relative values of the enzyme reaction in a system to which the substance of the present invention was added were calculated (Substance 1 of the present invention and Substance 2 of the present invention: FIG. 1, Substance 3 of the present invention and Substance 4 of the present invention: FIG. 2, Substance 5 of the present invention and Substance 6 of the present invention: FIG. 3).

Row | strength of inhibitory activity upon GalNAc4S6ST, α type and β type of the same formula compared | inhibitory activity upon GalNAc4S6ST (relative value of the enzyme reaction, system without substance = 100%) | SMILES
1 | particularly strong | inhibitory activity was observed | CC(=O)NC1[C@H](Oc2ccccc2)OC(COS(=O)(=O)O)[C@H](O)[C@@H]1O (stereo partly shown) [Substance 2]
2 |  | inhibitory activity was observed | CC(=O)NC1[C@@H](Oc2ccccc2)OC(COS(=O)(=O)O)[C@H](O)[C@@H]1O (stereo partly shown) [Substance 1]
3 | stronger inhibitory activity |  | CC(=O)NC1[C@H](Oc2ccccc2)OC(CO)[C@H](OS(=O)(=O)O)[C@@H]1O (stereo partly shown) [Substance 6]
